Reference: ChEMBL document CHEMBL1133319, “Eryloside F, a novel penasterol disaccharide possessing potent thrombin receptor antagonist activity” (Bioorg Med Chem Lett, 2000)
≈ marks a conversion by molar mass, not a printed value.

Experiments:
Homo sapiens [1] = species on record: Homo sapiens; assay: Inhibitory concentration of compound was determined against U-46619 (3 uM) induced platelet aggregation; format: functional
Homo sapiens [2] = species on record: Homo sapiens; assay: Inhibitory concentration of compound was determined against SFLLRN (3 uM) induced platelet aggregation; format: functional

CC(C)=CCC[C@@H](C)[C@H]1CC[C@@]2(C(=O)O)C3=C(CC[C@]12C)[C@@]1(C)CC[C@H](O[C@@H]2OC[C@H](O)[C@H](O)[C@H]2O[C@@H]2O[C@H](CO)[C@H](O)[C@H](O)[C@H]2O)C(C)(C)[C@@H]1CC3 [ERYLOSIDE F]
IC50 (Homo sapiens [1]): 1.7 µg/mL (≈ 2.26 µM) | IC50 (Homo sapiens [2]): 0.3 µg/mL (≈ 0.399 µM)
